Laboratory results from PubChem BioAssay (NCI).
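Cells were grown in 96-well plates and exposed to each compound for 48 hours at five concentrations; endpoints were interpolated linearly between bracketing concentrations, or set to the highest concentration if not reached. At the TGI there is no net growth.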

How the values were obtained:
Assay in all cases: NCI tumour cell line growth inhibition, 48 h
MALME-3M melanoma = tested on: MALME-3M melanoma
DMS 114 small cell lung = tested on: DMS 114 small cell lung
SW-620 colon = tested on: SW-620 colon
CCRF-CEM leukemia = tested on: CCRF-CEM leukemia
M14 melanoma = tested on: M14 melanoma
SF-539 CNS = tested on: SF-539 CNS
DMS 273 small cell lung = tested on: DMS 273 small cell lung
SNB-75 CNS = tested on: SNB-75 CNS
HCT-15 colon = tested on: HCT-15 colon
HT29 colon = tested on: HT29 colon
A549 NSCLC = tested on: A549 NSCLC
SNB-19 CNS = tested on: SNB-19 CNS
SK-MEL-28 melanoma = tested on: SK-MEL-28 melanoma
HCT-116 colon = tested on: HCT-116 colon
ACHN renal = tested on: ACHN renal
U251 CNS = tested on: U251 CNS
LXFL 529 NSCLC = tested on: LXFL 529 NSCLC
A498 renal = tested on: A498 renal
SK-OV-3 ovarian = tested on: SK-OV-3 ovarian
HCC-2998 colon = tested on: HCC-2998 colon
HL-60(TB) leukemia = tested on: HL-60(TB) leukemia
RXF-631 renal = tested on: RXF-631 renal
OVCAR-3 ovarian = tested on: OVCAR-3 ovarian
SNB-78 CNS = tested on: SNB-78 CNS
UACC-62 melanoma = tested on: UACC-62 melanoma
HOP-92 NSCLC = tested on: HOP-92 NSCLC
HOP-62 NSCLC = tested on: HOP-62 NSCLC
NCI-H23 lung = tested on: NCI-H23 lung
NCI-H460 lung = tested on: NCI-H460 lung
IGROV1 ovarian = tested on: IGROV1 ovarian
KM20L2 colon = tested on: KM20L2 colon
UACC-257 melanoma = tested on: UACC-257 melanoma
SF-268 CNS = tested on: SF-268 CNS
OVCAR-4 ovarian = tested on: OVCAR-4 ovarian
UO-31 renal = tested on: UO-31 renal
SF-295 CNS = tested on: SF-295 CNS
SK-MEL-2 melanoma = tested on: SK-MEL-2 melanoma
KM12 colon = tested on: KM12 colon
M19-MEL melanoma = tested on: M19-MEL melanoma
OVCAR-8 ovarian = tested on: OVCAR-8 ovarian
HOP-18 NSCLC = tested on: HOP-18 NSCLC
RPMI-8226 leukemia = tested on: RPMI-8226 leukemia
COLO 205 colon = tested on: COLO 205 colon
MOLT-4 leukemia = tested on: MOLT-4 leukemia
SN12C renal = tested on: SN12C renal
RXF 393 renal = tested on: RXF 393 renal
NCI-H522 lung = tested on: NCI-H522 lung
OVCAR-5 ovarian = tested on: OVCAR-5 ovarian
DLD-1 colon = tested on: DLD-1 colon
EKVX NSCLC = tested on: EKVX NSCLC
786-0 renal = tested on: 786-0 renal
LOX IMVI melanoma = tested on: LOX IMVI melanoma
TK-10 renal = tested on: TK-10 renal
SK-MEL-5 melanoma = tested on: SK-MEL-5 melanoma
K-562 leukemia = tested on: K-562 leukemia
XF 498 CNS = tested on: XF 498 CNS
CAKI-1 renal = tested on: CAKI-1 renal
SR leukemia = tested on: SR leukemia

Structure (SMILES): COc1ccc(/C=C2/CCCC/C2=N/O)cc1
- TGI (MALME-3M melanoma): > 100 µM
- TGI (DMS 114 small cell lung): > 100 µM
- TGI (SW-620 colon): > 100 µM
- TGI (CCRF-CEM leukemia): > 100 µM
- TGI (M14 melanoma): > 100 µM
- TGI (SF-539 CNS): > 100 µM
- TGI (DMS 273 small cell lung): > 100 µM
- TGI (SNB-75 CNS): > 100 µM
- TGI (HCT-15 colon): > 100 µM
- TGI (HT29 colon): > 100 µM
- TGI (A549 NSCLC): > 100 µM
- TGI (SNB-19 CNS): > 100 µM
- TGI (SK-MEL-28 melanoma): > 100 µM
- TGI (HCT-116 colon): > 100 µM
- TGI (ACHN renal): > 100 µM
- TGI (U251 CNS): > 100 µM
- TGI (LXFL 529 NSCLC): > 100 µM
- TGI (A498 renal): > 100 µM
- TGI (SK-OV-3 ovarian): > 100 µM
- TGI (HCC-2998 colon): > 100 µM
- TGI (HL-60(TB) leukemia): > 100 µM
- TGI (RXF-631 renal): > 100 µM
- TGI (OVCAR-3 ovarian): > 100 µM
- TGI (SNB-78 CNS): > 100 µM
- TGI (UACC-62 melanoma): > 100 µM
- TGI (HOP-92 NSCLC): > 100 µM
- TGI (HOP-62 NSCLC): > 100 µM
- TGI (NCI-H23 lung): > 100 µM
- TGI (NCI-H460 lung): > 100 µM
- TGI (IGROV1 ovarian): > 100 µM
- TGI (KM20L2 colon): > 100 µM
- TGI (UACC-257 melanoma): > 100 µM
- TGI (SF-268 CNS): > 100 µM
- TGI (OVCAR-4 ovarian): > 100 µM
- TGI (UO-31 renal): > 100 µM
- TGI (SF-295 CNS): > 100 µM
- TGI (SK-MEL-2 melanoma): > 100 µM
- TGI (KM12 colon): > 100 µM
- TGI (M19-MEL melanoma): > 100 µM
- TGI (OVCAR-8 ovarian): > 100 µM
- TGI (HOP-18 NSCLC): > 100 µM
- TGI (RPMI-8226 leukemia): > 100 µM
- TGI (COLO 205 colon): > 100 µM
- TGI (MOLT-4 leukemia): > 100 µM
- TGI (SN12C renal): > 100 µM
- TGI (RXF 393 renal): > 100 µM
- TGI (NCI-H522 lung): > 100 µM
- TGI (OVCAR-5 ovarian): > 100 µM
- TGI (DLD-1 colon): > 100 µM
- TGI (EKVX NSCLC): > 100 µM
- TGI (786-0 renal): > 100 µM
- TGI (LOX IMVI melanoma): > 100 µM
- TGI (TK-10 renal): > 100 µM

Structure (SMILES): Cn1ncc2cc3c(Nc4ccc(Cl)cc4)cccc3nc21
- TGI (MALME-3M melanoma): 56.3 µM
- TGI (DMS 114 small cell lung): 28.9 µM
- TGI (SW-620 colon): 48.8 µM
- TGI (CCRF-CEM leukemia): 92.7 µM
- TGI (M14 melanoma): 46.3 µM
- TGI (SK-MEL-5 melanoma): 29.4 µM
- TGI (SNB-75 CNS): > 100 µM
- TGI (HCT-15 colon): 37.5 µM
- TGI (A549 NSCLC): 85.3 µM
- TGI (SNB-19 CNS): > 100 µM
- TGI (SK-MEL-28 melanoma): 35.8 µM
- TGI (ACHN renal): 72.5 µM
- TGI (LXFL 529 NSCLC): 42.7 µM
- TGI (SK-OV-3 ovarian): > 100 µM
- TGI (HCC-2998 colon): 54.5 µM
- TGI (K-562 leukemia): > 100 µM
- TGI (HL-60(TB) leukemia): 43.4 µM
- TGI (RXF-631 renal): 74.7 µM
- TGI (OVCAR-3 ovarian): 44 µM
- TGI (SNB-78 CNS): > 100 µM
- TGI (UACC-62 melanoma): 32.7 µM
- TGI (HOP-92 NSCLC): 47.7 µM
- TGI (HOP-62 NSCLC): 53 µM
- TGI (NCI-H23 lung): > 100 µM
- TGI (NCI-H460 lung): 32 µM
- TGI (IGROV1 ovarian): 38.8 µM
- TGI (KM20L2 colon): 34.8 µM
- TGI (UACC-257 melanoma): 38.3 µM
- TGI (SF-268 CNS): > 100 µM
- TGI (XF 498 CNS): 20.5 µM
- TGI (OVCAR-4 ovarian): 40 µM
- TGI (UO-31 renal): 88.7 µM
- TGI (SF-295 CNS): 35.3 µM
- TGI (SK-MEL-2 melanoma): 51.8 µM
- TGI (KM12 colon): 35.6 µM
- TGI (M19-MEL melanoma): 43.9 µM
- TGI (OVCAR-8 ovarian): 76.1 µM
- TGI (RPMI-8226 leukemia): 34.2 µM
- TGI (COLO 205 colon): 28.1 µM
- TGI (MOLT-4 leukemia): 36.3 µM
- TGI (SN12C renal): 70.8 µM
- TGI (RXF 393 renal): 37.6 µM
- TGI (CAKI-1 renal): 61.3 µM
- TGI (DLD-1 colon): > 100 µM
- TGI (EKVX NSCLC): 88 µM
- TGI (786-0 renal): > 100 µM
- TGI (LOX IMVI melanoma): 41.4 µM
- TGI (TK-10 renal): > 100 µM

Structure (SMILES): C=CC1C2=C(C(=O)NCC2)C2OC(O)C3=C(CCNC3=O)C2C1C (configuration not stated)
- TGI (DMS 114 small cell lung): > 100 µM
- TGI (CCRF-CEM leukemia): > 100 µM
- TGI (SR leukemia): > 100 µM
- TGI (A549 NSCLC): > 100 µM
- TGI (SNB-19 CNS): > 100 µM
- TGI (SK-MEL-28 melanoma): > 100 µM
- TGI (HCT-116 colon): > 100 µM
- TGI (ACHN renal): > 100 µM
- TGI (U251 CNS): > 100 µM
- TGI (SK-OV-3 ovarian): > 100 µM
- TGI (HL-60(TB) leukemia): > 100 µM
- TGI (RXF-631 renal): > 100 µM
- TGI (SNB-78 CNS): > 100 µM
- TGI (UACC-62 melanoma): > 100 µM
- TGI (HOP-92 NSCLC): > 100 µM
- TGI (NCI-H23 lung): > 100 µM
- TGI (IGROV1 ovarian): > 100 µM
- TGI (SF-268 CNS): > 100 µM
- TGI (UO-31 renal): > 100 µM
- TGI (KM12 colon): > 100 µM
- TGI (MOLT-4 leukemia): > 100 µM
- TGI (RXF 393 renal): > 100 µM
- TGI (NCI-H522 lung): > 100 µM
- TGI (OVCAR-5 ovarian): > 100 µM
- TGI (EKVX NSCLC): > 100 µM
- TGI (TK-10 renal): > 100 µM
